Read-outs that look alike come from different tables or passages of the source.
Tests used:
SARS-CoV-2 [1] = conditions: for anti-cytopathic activity against SARS-CoV-2 (in words): Caco-2, hits / concentration-response screen; for inhibition of cytopathicity in the concentration-response screen: Caco-2, compound concentrations of up to 20 µM
SARS-CoV-2 [2] = type: cell-based; conditions: 10 µM
Protocol: For the primary screen, the final compound concentration was 10 µM (in 0.1% DMSO) and each compound was tested in singlicate. Concentration-response profiling of primary hits was performed in triplicate with eight concentrations ranging from 20 µM to 20 nM (half-log dilution factor, 0.1% DMSO final). For initial dose response studies, compounds were tested on three different plates to minimise the influence of plate effects. Later dose response studies at lower concentrations were also done on the same plate. Following the addition of compounds, cells were immediately infected with SARS-CoV-2 at a multiplicity of infection (MOI) of 0.01. Positive controls were prepared with the virus but no compounds, and negative controls were prepared without the virus. After 48 h, the medium was removed and cells were fixed in 3% paraformaldehyde in phosphate-buffered saline (PBS). The plates were sealed and disinfected to inactivate the virus[13] then screened by high-content imaging using the Operetta CLS platform (PerkinElmer). The image data were processed as described below and deposited on the Image Data Resource[14].
Images were acquired using a 10× objective with nine imaged fields per well in label-free mode by digital phase contrast (DPC). […] This method improves the signal-to-noise ratio and allows for image segmentation and single-cell analysis. The images were analysed using PerkinElmer Columbus v2.9.0. The analysis sequence started with cell detection (method c, common threshold 0.05, area >100 µm^2, splitting coefficient 6.5, individual threshold 0.05, contrast >0.05) and was followed by calculating morphology, intensity and position properties as well as cell confluence (Fig. 2). The data were deposited on the Image Data Resource[14]. Although we used cell confluence as a read out parameter additional parameters were calculated and deposited as well. These parameters can be used for further analysis to include parameters related to cellular stress or cytoskeletal impairment, both critical for viral replication. Well-level data were analysed in ActivityBase (IDBS) and R v3.6.1, using cell confluence as final read out parameter. […] Outliers were eliminated according to the three-sigma method. Plate-level statistical performance was assessed using the Z’factor calculation with values between 0.35 and 1.0 representing an acceptable assay. Data for the primary screen were deposited on ChEMBL[17].Concentration-response curves were fitted in GraphPad Prism v8.0.0 (GraphPad Software) using a four-parameter […] (least squares fit). Data for the dose-response screen were deposited on ChEMBL[18].
Cytopathicity assays were conducted in 96 well Cellstar plates (Greiner bio-one) using 4 wells with cells without virus (negative control) and 4 wells with cells and with virus (positive control). A three-sigma invalidation was performed on the raw data of the controls on each plate, resulting in maximal one invalidated well per plate during primary screening. During hit confirmation and dose-response studies no wells were eliminated as all wells were within three-sigma. After invalidation the plate specific z’factor was calculated and the plate was removed if quality criteria (z’factor > 0.35) were not met. Plates passing quality control were analysed and normalized as specified above. Hits were identified by having at least 75% efficiency in blocking viral cytopathicity at 10 µM.

MERS-CoV [3] = conditions: Vero-E6, cited from earlier work
SARS-CoV-2 [4] = conditions: Vero-E6, read-out: Reports SARS-CoV-2 (Vero-E6) IC50, cited from earlier work
SARS-CoV = conditions: Vero-E6, read-out: Reports SARS-CoV (Vero-E6) IC50, cited from earlier work
MERS-CoV [5] = conditions: Calu-3; read-out: Reports MERS (Vero-6, Calu-3 or BHK21) IC50; cited from earlier work
MERS-CoV [6] = conditions: BHK-21; read-out: Reports MERS (Vero-6, Calu-3 or BHK21) IC50; cited from earlier work
SARS-CoV-2 [7] = assay: microbe, parasite or virus in culture; conditions: Severe acute respiratory syndrome coronavirus 2, Caco-2, 48 h, read-out: Results SARS-CoV-2 (Caco-2) IC50
in vitro = conditions: human, Caco-2
[8] = singlicate, Caco-2, 48 h, hit = at least 75% inhibition of cytopathicity

In the case of `COC(=O)C[C@](O)(CCCC(C)(C)O)C(=O)O[C@@H]1C(OC)=C[C@]23CCCN2CCc2cc4c(cc2[C@H]13)OCO4` [homo-harringtonine], the “anti-cytopathic activity against SARS-CoV-2 (in words)” value (SARS-CoV-2 [1]) is reported as “identified”.

For `CCN(CCO)CCCC(C)Nc1ccnc2cc(Cl)ccc12` (stereo not drawn) [hydroxychloroquine], the “activity in the primary screen (in words)” value (SARS-CoV-2 [2]; [8]) was “inactive”.

In the case of `Cc1cccc(C)c1OCC(=O)N[C@@H](Cc1ccccc1)[C@@H](O)C[C@H](Cc1ccccc1)NC(=O)[C@H](C(C)C)N1CCCNC1=O` [lopinavir], the “anti-cytopathic activity against SARS-CoV-2 (in words)” value (SARS-CoV-2 [1]) is listed as “active at the highest concentration”, the “Reports MERS (Vero-6, Calu-3 or BHK21) IC50” value (MERS-CoV [3]; ref 57, 58) is listed as “not active” and the IC50 (MERS-CoV [3]; ref 57, 58, read-out: Reports MERS (Vero-6, Calu-3 or BHK21) IC50) is listed as 8 µM. The IC50 (SARS-CoV-2 [4]; ref 23) was 9.12 µM.

With `CCCCN(CCCC)CC(O)c1cc(Cl)cc2c1-c1ccc(Cl)cc1/C2=C/c1ccc(Cl)cc1` (stereo not drawn) [lumefantrine] the “activity in the primary screen (in words)” value (SARS-CoV-2 [2]; [8]) was “inactive”.

In the case of `OC(c1cc(C(F)(F)F)nc2c(C(F)(F)F)cccc12)C1CCCCN1` (stereo not drawn) [mefloquine], the “activity in the primary screen (in words)” value (SARS-CoV-2 [2]; [8]) is given as “identified in the primary screen”, the IC50 (MERS-CoV [3]; ref 53, read-out: Reports MERS (Vero-E6) IC50) is given as 15.5 µM and the IC50 (SARS-CoV; ref 53) is given as 7.41 µM. The IC50 (SARS-CoV-2 [4]; ref 23) was 4.33 µM and the IC50 (SARS-CoV-2 [4]; ref 55) was 8.06 µM.

For `N=C(N)c1ccc2cc(OC(=O)c3ccc(N=C(N)N)cc3)ccc2c1` [nafamostat], the “potency against SARS-CoV-2 in Caco-2 cell assay relative to previous studies using Vero-E6 cells” value (SARS-CoV-2 [1]; comparison with refs 27, 28) is given as over 500 fold, the IC50 (SARS-CoV-2 [4]; ref 27, 28) is given as 22.5 µM and the IC50 (MERS-CoV [5]) is given as 0.1 µM.

For `COc1ccc(Cc2nccc3cc(OC)c(OC)cc23)cc1OC` [papaverine], the IC50 (MERS-CoV [6]) is given as 9.45 µM.

In the case of `NS(=O)(=O)OC[C@@H]1C[C@@H](n2ccc3c(N[C@H]4CCc5ccccc54)ncnc32)C[C@@H]1O` [pevonedistat], the IC50 (SARS-CoV-2 [7]) is reported as under 1 µM.

With `COc1cc(NC(C)CCCN)c2ncccc2c1` (stereo not drawn) [primaquine] the “activity in the primary screen (in words)” value (SARS-CoV-2 [2]; [8]) was “inactive”.

For `COc1ccc2nc3cc(Cl)ccc3c(Nc3cc(CN4CCCC4)c(O)c(CN4CCCC4)c3)c2n1` [pyronaridine], the “activity in the primary screen (in words)” value (SARS-CoV-2 [2]; [8]) was “inactive” and the “inhibition of cytopathicity in the concentration-response screen” value (SARS-CoV-2 [1]) was under 50%.

In the case of `CCC(CC)COC(=O)[C@H](C)N[P@](=O)(OC[C@H]1O[C@@](C#N)(c2ccc3c(N)ncnn23)[C@H](O)[C@@H]1O)Oc1ccccc1` [remdesivir], the IC50 (SARS-CoV-2 [7]) is given as 0.76 ± 0.18 µM, the IC50 (SARS-CoV; ref 22) is given as 0.069 µM and the CC50 (in vitro) is given as over 20 µM.

For `CC(C)c1nc(CN(C)C(=O)N[C@H](C(=O)N[C@@H](Cc2ccccc2)C[C@H](O)[C@H](Cc2ccccc2)NC(=O)OCc2cncs2)C(C)C)cs1` [ritonavir], the “activity in the primary screen (in words)” value (SARS-CoV-2 [2]; 48 h) was “inactive”.

In the case of `COc1cc(C)c2c(Oc3cccc(C(F)(F)F)c3)c(OC)cc(NC(C)CCCN)c2n1` (stereo not drawn) [tafenoquine], the “activity in the primary screen (in words)” value (SARS-CoV-2 [2]; [8]) is reported as “inactive” and the “inhibition of cytopathicity in the concentration-response screen” value (SARS-CoV-2 [1]) is reported as under 50%.

Compound `C[C@@H]1CN(Cc2ccc(F)cc2)[C@@H](C)CN1C(=O)c1cc2c(C(=O)C(=O)N(C)C)cn(C)c2cc1Cl` [talmapimod] has an IC50 (SARS-CoV-2 [7]) of 9.6 µM and a CC50 (in vitro) of over 20 µM.

For `Nc1nc2c(ncn2[C@@H]2O[C@H](CO)[C@@H](O)[C@H]2O)c(=S)[nH]1` [thioguanosine], the “CI (cytotoxicity index)” value (SARS-CoV-2 [1]; printed as CI = IC50/CC50, Caco-2 toxicity versus SARS-CoV-2 anti-cytopathic effect) was under 3 and the IC50 (SARS-CoV-2 [7]) was 0.78 µM.

— article PMC7910569 (Scientific Data, 2021)
